# Laboratory results reported in patent publication US20040053424A1, “Continuous-flow homogeneous biochemical assays based on mass spectrometric detection of known ligands” (priority 2000, published 2004).
# Key:
# streptavidin = streptavidin (Streptomyces avidinii, UniProt P22629); assay: homogeneous on-line mass spectrometric biochemical assay, streptavidin / fluorescein-biotin reporter; type: binding; settings: for effect of analyte injection on binding of reporter fluorescein-biotin to streptavidin (SIM MS signal at m/z 390): equal concentrations injected, 32 nmol/l streptavidin, 96 nmol/l fluorescein-biotin, FIG. 2
# Procedure: Streptavidin is a well-known affinity protein with a high affinity for biotin and biotinylated compounds. To a carrier solution consisting of 10 mmol/L ammonium formate/methanol (90:10, v/v) pumped at a flow rate of 50 μl/min a solution of 32 nmol/l streptavidin dissolved in 10 mmol/L ammonium formate was added at a flow rate of 50 μl/min. The mixture was pumped through a knitted […]. poly(tetrafluoroethylene) reaction coil with an internal volume of 17 μl. Subsequently, a solution of 96 nmol/l fluorescein-biotin dissolved in 10 mmol/L ammonium formate/methanol (90:10, v/v) was added at a flow rate of 100 μl/min. The mixture was then pumped through a knitted […]. poly(tetrafluoroethylene) reaction coil with an internal volume of 33 μl and subsequently introduced into a mass spectrometer equipped with an electrospray ionization (ESI) source. Mass spectrometry was operated in selected-ion monitoring (SIM) in the positive-ion (PI) mode on [M+H]+and on one or more intense fragment ions. The ESI source conditions for the streptavidin/biotin system: source temperature, 80° C.; capillary voltage, 3.2 kV. The sampling cone voltage was 30 and 60 V for biotin and fluorescein-labeled biotin, respectively.
# At point 1, only carrier buffer was pumped into the mass spectrometer providing a reference background signal. […] At point 3, the streptavidin pump was switched on.
# [1] = test system: fab fragments of anti-digoxigenin antibodies (fab anti-digoxigenin); assay: homogeneous on-line mass spectrometric biochemical assay, fab anti-digoxigenin / digoxigenin reporter; type: binding; settings: 100 nmol/l fab anti-digoxigenin, 200 nmol/l digoxigenin; FIG. 3, point 4
# Procedure: To a carrier solution consisting of 10 mmol/L ammonium formate/methanol (90:10, v/v) pumped at a flow rate of 50 μl/min a solution of 100 nmol/l fab anti-digoxigenin dissolved in 10 mmol/L ammonium formate was added at a flow rate of 50 μl/min. The mixture was pumped through a knitted 300 μm i.d. poly(tetrafluoroethylene) reaction coil with an internal volume of 65 μl. Subsequently, a solution of 200 nmol/l digoxigenin dissolved in 10 mmol/L ammonium formate/methanol (90:10, v/v) is added at a flow rate of 100 ill/min. The mixture was then pumped through a knitted 300 μm i.d. poly(tetrafluoroethylene) reaction coil with an internal volume of 33 μl and subsequently introduced into a mass spectrometer equipped with an electrospray ionization (ESI) source. Mass spectrometry was operated in selected-ion monitoring (SIM) in the positive-ion (PI) mode on [M+H]+and on one or more intense fragment ions.
# At point 1, only carrier buffer was pumped into the mass spectrometer providing a reference background signal. At point 2, the digoxigenin pump was switched on leading to an increase of the selected-ion monitoring MS signal at m/z 408 (the ammonium adduct of digoxigenin). At point 3, the fab anti-digoxigenin pump was switched on.
# Sequence of streptavidin (P22629 25-183): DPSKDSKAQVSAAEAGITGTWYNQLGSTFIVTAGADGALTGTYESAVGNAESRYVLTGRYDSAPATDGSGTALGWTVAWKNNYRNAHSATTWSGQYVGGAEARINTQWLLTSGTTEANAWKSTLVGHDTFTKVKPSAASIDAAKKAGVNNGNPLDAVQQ
Compound,effect of analyte injection on binding of reporter fluorescein-biotin to streptavidin (SIM MS signal at m/z 390) (streptavidin),also measured
N[C@@H](CCCCNC(=O)CCCC[C@@H]1SC[C@@H]2NC(=O)N[C@@H]21)C(=O)O [N-biotin-L-lysine],"capable to prevent the binding of the reporter molecule, fluorescein-biotin, to streptavidin",–
NNC(=O)CCCCCNC(=O)CCCC[C@@H]1SC[C@@H]2NC(=O)N[C@@H]21 [N-biotinyl-6-aminocaprioc hydrazide],"capable to prevent the binding of the reporter molecule, fluorescein-biotin, to streptavidin",–
O=C(O)CCCC[C@@H]1SC[C@@H]2NC(=O)N[C@@H]21 [biotin],"capable to prevent the binding of the reporter molecule, fluorescein-biotin, to streptavidin","effect of injection on free streptavidin binding sites / free fluorescein-biotin concentration (SIM MS signal at m/z 390) (streptavidin; FIG. 1, point 4): decrease of free streptavidin binding sites and an increase of the free fluorescein-biotin concentration"
C[C@H]1O[C@@H](O[C@H]2[C@@H](O)C[C@H](O[C@H]3[C@@H](O)C[C@H](O[C@H]4CC[C@@]5(C)[C@H](CC[C@@H]6[C@@H]5C[C@@H](O)[C@]5(C)[C@@H](C7=CC(=O)OC7)CC[C@]65O)C4)O[C@@H]3C)O[C@@H]2C)C[C@H](O)[C@@H]1O [digoxin],–,effect of injection on free fab anti-digoxigenin binding sites / free digoxigenin concentration (SIM MS signal at m/z 408) [1]: decrease of free fab anti-digoxigenin binding sites and an increase of the free digoxigenin concentration
fluorescein-biotin,–,"effect of adding streptavidin on free reporter ligand (SIM MS signal at m/z 390) (streptavidin; FIG. 1, point 3): decrease of the concentration of free fluorescein-biotin"
